Measurements reported in BindingDB's records for doi:10.1111/cbdd.12118 (Bombay College of Pharmacy, 2013).

What follows are molecules tested against T1, Enoyl-acyl carrier reductase (Plasmodium falciparum, UniProt Q9BH77) (assay: Fabl Assay). Conditions: pH 7.4.
T1 sequence (Q9BH77 whole entry): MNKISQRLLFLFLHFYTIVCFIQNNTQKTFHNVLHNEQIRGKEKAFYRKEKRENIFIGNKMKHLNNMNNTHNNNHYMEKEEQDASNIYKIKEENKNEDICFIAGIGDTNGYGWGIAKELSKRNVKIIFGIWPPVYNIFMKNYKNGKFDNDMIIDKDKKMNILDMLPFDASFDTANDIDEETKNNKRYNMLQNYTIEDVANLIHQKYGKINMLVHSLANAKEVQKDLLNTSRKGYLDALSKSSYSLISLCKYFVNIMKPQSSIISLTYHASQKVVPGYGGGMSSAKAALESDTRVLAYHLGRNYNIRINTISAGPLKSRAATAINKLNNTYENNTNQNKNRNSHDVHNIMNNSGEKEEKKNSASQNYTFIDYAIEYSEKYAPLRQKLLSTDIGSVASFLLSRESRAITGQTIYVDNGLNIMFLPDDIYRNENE
From the text: Inhibition assay using pfENR.

| Structure (SMILES) | IC50 |
| --- | --- |
| O=C(CNc1ccccc1)N/N=C/c1ccccc1Cl [Phenylaminoacetic acid benzylidene hydrazine analog, 1] | 90 µM |
| COc1ccc(/C=N/NC(=O)CNc2ccccc2)cc1OC [Phenylaminoacetic acid benzylidene hydrazine analog, 2] | > 159 µM |
| COc1ccc(/C=N/NC(=O)CNc2ccc(Cl)cc2)cc1OC [Phenylaminoacetic acid benzylidene hydrazine analog, 3] | > 143 µM |
| O=C(CNc1ccc(Cl)cc1)N/N=C/c1ccccc1 [Phenylaminoacetic acid benzylidene hydrazine analog, 4] | 10 µM |
| CN(C)c1ccc(/C=N/NC(=O)CNc2ccc(F)cc2)cc1 [Phenylaminoacetic acid benzylidene hydrazine analog, 7] | 8 µM |
| O=C(CNc1ccccc1)N/N=C/c1ccccc1 [Phenylaminoacetic acid benzylidene hydrazine analog, 8] | 197 µM |
| O=C(CNc1ccccc1)N/N=C/c1cccc(Br)c1 [Phenylaminoacetic acid benzylidene hydrazine analog, 9] | 90 µM |
| O=C(CNc1ccccc1)N/N=C/c1ccccc1O [Phenylaminoacetic acid benzylidene hydrazine analog, 10] | > 185 µM |
| O=C(CNc1cccc(F)c1Cl)N/N=C/c1ccccc1O [Phenylaminoacetic acid benzylidene hydrazine analog, 12] | > 155 µM |
| O=C(CNc1cccc(F)c1Cl)N/N=C/c1ccccc1Cl [Phenylaminoacetic acid benzylidene hydrazine analog, 14] | 29 µM |
| O=C(CNc1ccc(Cl)cc1)N/N=C/c1ccccc1O [Phenylaminoacetic acid benzylidene hydrazine analog, 16] | > 164 µM |
| O=C(CNc1ccc(Cl)cc1)N/N=C/c1cccc(Br)c1 [Phenylaminoacetic acid benzylidene hydrazine analog, 17] | 7 µM |
| O=C(CNc1cccc(Cl)c1)N/N=C/c1ccccc1 [Phenylaminoacetic acid benzylidene hydrazine analog, 19] | 173 µM |
| O=C(CNc1cccc(Cl)c1)N/N=C/c1cccc(Br)c1 [Phenylaminoacetic acid benzylidene hydrazine analog, 21] | 163 µM |

Now from value to molecule:

| IC50 | Structure (SMILES) |
| --- | --- |
| 12 µM | O=C(CNc1ccc(F)cc1)N/N=C/c1ccccc1O [Phenylaminoacetic acid benzylidene hydrazine analog, 6] |
| > 168 µM | CN(C)c1ccc(/C=N/NC(=O)CNc2ccccc2)cc1 [Phenylaminoacetic acid benzylidene hydrazine analog, 11] |
| > 163 µM | O=C(CNc1cccc(F)c1Cl)N/N=C/c1ccccc1 [Phenylaminoacetic acid benzylidene hydrazine analog, 13] |
| > 129 µM | O=C(CNc1cccc(F)c1Cl)N/N=C/c1cccc(Br)c1 [Phenylaminoacetic acid benzylidene hydrazine analog, 15] |
| 163 µM | O=C(CNc1ccc(F)cc1)N/N=C/c1ccccc1Cl [Phenylaminoacetic acid benzylidene hydrazine analog, 18] |
| 77 µM | O=C(CNc1cccc(Cl)c1)N/N=C/c1ccccc1Cl [Phenylaminoacetic acid benzylidene hydrazine analog, 20] |
